Data set [1] is described as follows: Chemical stability of the compound in pH 4 aqueous solution assessed as degradation by measuring residual rate incubated for 24 hrs at 65 degC by HPLC analysis. It counts as physicochemical. The note with it: read-out: Activity.
Data set [2] is described as follows: Chemical stability of the compound in pH 7.4 aqueous solution assessed as degradation by measuring residual rate incubated for 24 hrs at 65 degC by HPLC analysis. In kind it is physicochemical. The note with it: read-out: Activity.
A short description of data set [3]: Total clearance in CL57BL/6J mouse at 0.25 mg/kg, iv measured upto 24 hrs by LCMS/MS analysis. In kind it is ADME, organism-based. The note with it: in vivo.
Data set [4] can be described thus: Volume of distribution at steady state in CL57BL/6J mouse at 0.25 mg/kg, iv measured upto 24 hrs by LCMS/MS analysis. The note with it: in vivo, read-out: Vdss. It counts as ADME, organism-based.
A short description of data set [5]: Lipophilicity, logD of compound at pH 7.4. The note with it: buffer. It counts as physicochemical.
Data set [6] can be described thus: Urinary excretion rate in rat at 1 mg/kg, iv. It counts as ADME, organism-based. The note with it: urine, read-out: Activity.
The nature of data set [7]: Stability of the compound in rat liver S9 fraction. It counts as ADME, subcellular.
A short description of data set [8]: Total clearance in cynomolgus monkey at 0.25 mg/kg, iv. It counts as ADME, organism-based, Macaca fascicularis. The note with it: in vivo.
The nature of data set [9]: Volume of distribution at steady state in cynomolgus monkey at 0.25 mg/kg, iv. In kind it is ADME, organism-based, Macaca fascicularis. The note with it: in vivo, read-out: Vdss.
Data set [10] can be described thus: Total clearance in cynomolgus monkey at 0.25 mg/kg, iv pretreated with rifampicin 20 mg/kg, po 1 hr before. In kind it is ADME, organism-based, Macaca fascicularis. The note with it: in vivo.
The nature of data set [11]: Volume of distribution at steady state in cynomolgus monkey at 0.25 mg/kg, iv pretreated with rifampicin 20 mg/kg, po 1 hr before. It counts as ADME, organism-based, Macaca fascicularis. The note with it: in vivo, read-out: Vdss.

Starred links: 1 amine or outer side, 2 acyl side, 3 side chain; linkers in the order of their positions; H or OH if unused. Non-standard residues stand in square brackets, D forms with d. Residues, ends and D or L forms follow the SMILES beside them. *: point of attachment. Benzenesulfonyl(4-Cl,3-CF3) = O=S(=O)(c1ccc(Cl)c(C(F)(F)F)c1)*; γGlu = O=C(O)[C@H](CCC(=O)[*:2])N[*:1]; 4Pal = N[C@@H](Cc1ccncc1)C(=O)O; Tle = CC(C)(C)[C@H](N)C(=O)O; β3hP = O=C(O)C[C@@H]1CCCN1 Some results are limits rather than exact numbers.

For the molecule `CC(C)(C)[C@H](NC(=O)[C@H](Cc1ccncc1)NC(=O)CNC(=O)CC[C@H](NS(=O)(=O)c1ccc(Cl)c(C(F)(F)F)c1)C(=O)O)C(=O)Nc1ccc(C(=O)N2CCC(C(=O)N[C@H](CCCNC(=N)N)C(=O)NCCN)CC2)cc1`, the values for the remaining at 24 h in [1] and in data set [2] were 98.8% and 88.7%, respectively.
Take `CC(C)(C)[C@H](NC(=O)[C@H](Cc1ccncc1)NC(=O)CNC(=O)CC[C@H](NS(=O)(=O)c1ccc(Cl)c(C(F)(F)F)c1)C(=O)O)C(=O)Nc1ccc(C(=O)O)cc1`: the clearance in data set [3] is 200 mL/min/kg. Moreover, the Vd in [4] was 2.48 L/kg.
`CC(C)(C)[C@H](NC(=O)[C@H](Cc1ccncc1)NC(=O)CNC(=O)CC[C@H](NS(=O)(=O)c1ccc(Cl)c(C(F)(F)F)c1)C(=O)O)C(=O)Nc1ccc(C(=O)NCC2(N)CCNCC2)cc1`: the remaining at 24 h in [1] was found to be 95.6%; in data set [2], 86.4%.
Consider `COc1ccccc1Oc1c(NS(=O)(=O)c2ccc(C(C)(C)C)cc2)nc(-c2ncccn2)nc1OCCO` [BOSENTAN], for which the logD in [5] is 2.4.
`CC(C)(C)[C@H](NC(=O)[C@H](Cc1ccncc1)NC(=O)CNC(=O)CC[C@H](NS(=O)(=O)c1ccc(Cl)c(C(F)(F)F)c1)C(=O)O)C(=O)N1CCC[C@H]1CC(N)=O` ({Benzenesulfonyl(4-Cl,3-CF3)-γGlu}-G[4Pal][Tle][β3hP]-NH2): the dose excreted in [6] came out at 5%. This molecule came in with a Stability in data set [7] of under 10%. Further, the clearance in [8] was 24.5 mL/min/kg; in [10] it was 9.12 mL/min/kg. The Vd in data set [9] is 0.283 L/kg; in data set [11], 0.208 L/kg.
With `CN(C)CCCC[C@H](NC(=O)CCN)C(=O)N1CCN(C(=O)c2ccc(NC(=O)[C@@H](NC(=O)[C@H](Cc3ccncc3)NC(=O)CNC(=O)CC[C@H](NS(=O)(=O)c3ccc(Cl)c(C(F)(F)F)c3)C(=O)O)C(C)(C)C)cc2)CC1`, the remaining at 24 h in data set [1] turned out to be 100%; in data set [2] it was 93.7%.
As to `CC(C)(C)[C@H](NC(=O)[C@H](Cc1ccncc1)NC(=O)CNC(=O)CC[C@H](NS(=O)(=O)c1ccc(Cl)c(C(F)(F)F)c1)C(=O)O)C(=O)Nc1ccc(C(=O)N2CCN(C(=O)[C@@H](N)CCCN)CC2)cc1`, the clearance in [3] is 41.3 mL/min/kg. Besides, the Vd in data set [4] was found to be 0.185 L/kg. Besides, the results for the remaining at 24 h in data set [1] and in data set [2] were 88.6% and 58.7%, respectively.
As for `CC(C)(C)[C@H](NC(=O)[C@H](Cc1ccncc1)NC(=O)CNC(=O)CC[C@H](NS(=O)(=O)c1ccc(Cl)c(C(F)(F)F)c1)C(=O)O)C(=O)Nc1ccc(C(=O)N2CCC(C(=O)N[C@H](CCCCN)C(=O)N3C[C@@H](N)C[C@H]3C(N)=O)CC2)cc1`, the remaining at 24 h in data set [1] was found to be 97%; in data set [2], 96.2%.
Molecule `CC(C)c1nc(N(C)S(C)(=O)=O)nc(-c2ccc(F)cc2)c1/C=C/[C@@H](O)C[C@@H](O)CC(=O)O` [ROSUVASTATIN] returned a logD in [5] of -1.9.
Consider `CC(C)(C)[C@H](NC(=O)[C@H](Cc1ccncc1)NC(=O)CNC(=O)CC[C@H](NS(=O)(=O)c1ccc(Cl)c(C(F)(F)F)c1)C(=O)O)C(=O)Nc1ccc(C(=O)N2CCC(C(=O)N[C@H](CCCCN)C(=O)NCCN)CC2)cc1`, for which the remaining at 24 h in data set [1] amounted to 99.6%; in data set [2], 90.5%.

Broadly, the logD is the decadic logarithm of the distribution of all forms, ionised or not, between an organic phase and buffer at a given pH.

These data come from ChEMBL document CHEMBL5537178, “Discovery of TP0628103: A Highly Potent and Selective MMP-7 Inhibitor with Reduced OATP-Mediated Clearance Designed by Shifting Isoelectric Points” (J Med Chem, 2024).
